{"source": "patent US9745365B2", "about": "“Anti-influenza B virus hemagglutinin antibodies and methods of use” (priority 2014, dated 2017)", "origin": "cited, not measured here", "target": "influenza B neuraminidase (Influenza B virus, UniProt P03474)", "sequence (P03474 whole entry)": "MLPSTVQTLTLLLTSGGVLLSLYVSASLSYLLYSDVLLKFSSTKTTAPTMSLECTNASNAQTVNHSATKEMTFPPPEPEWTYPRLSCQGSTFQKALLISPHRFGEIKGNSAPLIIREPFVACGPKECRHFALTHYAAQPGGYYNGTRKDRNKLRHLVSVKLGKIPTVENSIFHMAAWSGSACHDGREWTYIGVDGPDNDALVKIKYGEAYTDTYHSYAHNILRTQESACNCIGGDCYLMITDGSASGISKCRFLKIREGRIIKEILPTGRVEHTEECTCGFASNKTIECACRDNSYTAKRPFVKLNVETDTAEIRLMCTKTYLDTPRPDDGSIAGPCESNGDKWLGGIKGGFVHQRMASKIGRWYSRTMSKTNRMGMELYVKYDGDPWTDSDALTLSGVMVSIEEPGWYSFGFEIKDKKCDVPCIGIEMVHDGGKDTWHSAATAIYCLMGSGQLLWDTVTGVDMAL", "details": "higher"}
{"smiles": "CCOC(=O)C1=C[C@@H](OC(CC)CC)[C@H](NC(C)=O)[C@@H](N)C1", "note": "[oseltamivir phosphate]", "values": [{"measurement": "IC50 for influenza B neuraminidase compared to that for influenza A neuraminidase", "value": 10, "unit": "fold"}]}
